Test results as given in patent US20250206738A1, “WRN INHIBITORS” (Nimbus Wadjet, Inc., priority 2023, published 2025).

Columns and labels:
[1] = tested on: p21 induction in HCT 116 cells; assay: p21 induction in cells (In-Cell Western, p21/GAPDH ratio); format: cell-based; conditions: Homo sapiens, HCT-116, 24 h, 24 h compound incubation, read-out: P21_EC50
Protocol: Example 3: Method for Determining Effect on p21 Induction in Cells
The colon carcinoma cell line HCT 116 was obtained from ATCC and cultured in growth medium consisting of Mccoy's 5A Medium (Gibco 16600108) supplemented with 10% FBS (Transgene FS201-02) and 100 units/mL penicillin-streptomycin (Gibco 15140122) and maintained at 37° C. under 5% CO2. On the day of seeding, 2,000 cells in 30 μL of culture media were plated per well to Poly-D-Lysine 384 Well Black Clear Plates (Biocoat 356663) and incubated overnight at 37° C. under 5% CO2. The following day, compounds were serially diluted in DMSO for a total of 11 test concentrations. The typical starting concentration of compounds was 10 μM with 2-fold dilutions. Next, 150 nL of diluted compound was added in duplicate to the assay plate, using an Echo 655 (Labcyte). The plate was centrifuged at 500 RPM for 1 min and then incubated at 37° C. under 5% CO2 for 24 h. After 24h, medium was removed, and cells were fixed by adding 40 μL of 4% paraformaldehyde solution to each well and incubated for 20 min at room temperature. The plate was then washed 4 times with 100 μL per well of wash buffer (PBS with 0.1% Tween-20) using a microplate washer. Next, 30 μL of ice-cold methanol was added to each well and the plate was incubated at −20° C. for 10 min. The plate was washed 4 times with 100 μL per well of wash buffer by a microplate washer, then 30 μL per well of blocking buffer (Intercept PBS blocking buffer (LI-COR 927-70001) with 0.05% Tween-20) was added and the plate was incubated at room temperature with shaking for 2h. Next, to each test well, 20 μL of primary antibody solution (p21 Waf1/CIP (12D1) RabbitmAb (Cell Signaling Technologies 2947) diluted 1:1000 and GAPDH (D4C6R) Mouse mAb (Cell Signaling Technologies 97166) diluted 1:2000 in blocking buffer) was added and the plate was placed at 4° C., overnight. The following day, the plate was washed 5 times with 100 μL per well of wash buffer using a microplate washer for 5 min. 20 μL per well of secondary antibody (IRDye 680CW Goat anti-Mouse IgG (H+L) (LI-COR 926-68070) diluted 1: 2000 in Blocking Buffer and IRDye 800CW Goat anti-Rabbit IgG (H+L) (LI-COR 926-32211) diluted 1: 2000 in Blocking Buffer) was then added and the plate was stored for 2h in the dark at room temperature with shaking. The plate was then washed 4 times with 100 μL per well of wash buffer again using a microplate washer. Finally, the p21 signal and the GAPDH signal were quantified using a LI-COR Odyssey CLx Imager machine reading at 800 nm and 700 nm, respectively. Each plate contained DMSO control (low control) and an internal reference WRN inhibitor (high control) respectively. For quantitation, the 800 nm/700 nm ratio was calculated for each well to give fold p21 induction and then percent activation for each compound well was calculated as follows (100×(ratio cpd well−ratio low control)/(ratio high control−ratio low control)). EC50 values for each compound were generated after non-linear regression curve fitting using commercially available software.

[2] = biological target: T1, human Werner helicase (WRN, Uniprot Q14191, amino acids 517-1235 with L1074F point mutation; WRN-BV08) (Homo sapiens, UniProt Q14191, L1074F); assay: WRN (BV08) ADP-Glo assay; format: biochemical; conditions: WRN-BV08 (aa 517-1235, L1074F); read-out: ADP-Glo_hWRN_IC50
T1 construct: Uniprot Q14191, amino acids 517-1235 with L1074F point mutation; 8xHis (C, cleaved yes); TEV cleavage site (ENLYFQG) (C, cleaved yes); made in house; host or cells: Sf9 insect cells (baculovirus, pFastBac)
Outline: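 ADP formed by untagged WRN helicase fragment (aa 517-1235, L1074F; 0.15 nM final) on 0.1 nM DNA duplex with […], 60 min at 25 °C after 15 min compound preincubation, pH 7.5 Bicine buffer. Luminescent ADP-Glo readout; IC50 from 4-parameter fit of % inhibition.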

T1 sequence (Q14191 with tags, fused parts or gaps L1074F): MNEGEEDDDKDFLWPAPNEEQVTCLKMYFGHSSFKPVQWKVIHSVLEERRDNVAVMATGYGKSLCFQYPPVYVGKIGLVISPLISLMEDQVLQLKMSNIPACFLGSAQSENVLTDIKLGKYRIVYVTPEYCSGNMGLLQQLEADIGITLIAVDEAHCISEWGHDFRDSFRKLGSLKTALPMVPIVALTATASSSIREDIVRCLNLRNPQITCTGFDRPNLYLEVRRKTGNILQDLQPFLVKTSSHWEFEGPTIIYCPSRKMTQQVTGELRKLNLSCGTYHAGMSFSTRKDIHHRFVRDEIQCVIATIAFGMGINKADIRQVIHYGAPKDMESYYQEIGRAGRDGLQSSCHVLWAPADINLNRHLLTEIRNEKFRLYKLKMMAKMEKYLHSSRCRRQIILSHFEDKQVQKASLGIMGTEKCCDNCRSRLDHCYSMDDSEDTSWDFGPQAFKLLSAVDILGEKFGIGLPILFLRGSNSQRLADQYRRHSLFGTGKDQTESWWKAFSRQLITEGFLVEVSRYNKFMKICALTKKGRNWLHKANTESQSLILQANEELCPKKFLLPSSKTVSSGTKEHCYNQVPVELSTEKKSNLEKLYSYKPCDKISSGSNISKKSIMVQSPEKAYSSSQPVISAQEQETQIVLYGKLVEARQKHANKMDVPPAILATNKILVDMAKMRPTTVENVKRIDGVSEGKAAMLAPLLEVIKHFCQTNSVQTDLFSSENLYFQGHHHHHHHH

Structure (SMILES) | EC50 [1] | IC50 [2]
CCc1c(N2CCN(C(=O)c3ncnc(C)c3O)CC2)c(=O)n2nc(C3=CCOCC3)nc2n1CC(=O)NC12CC(C3CC3)(C1)C2 [I-32, N-(3-cyclopropylbicyclo[1.1.1]pentan-1-yl)-2-(2-(3,6-dihydro-2H-pyran-4-yl)-5-ethyl-6-(4-(5-hydroxy-6-methylpyrimidine-4-carbonyl)piperazin-1-yl)-7-oxo-[1,2,4]triazolo[1,5-a]pyrimidin-4(7H)-yl)acetamide] | 2000 to 5000 nM | 5 to 50 nM
CCc1c(N2CCN(C(=O)c3c(O)ccc4ncoc34)CC2)c(=O)n2nc(N(C)C)nc2n1CC(=O)NC12CC(C(C)C)(C1)C2 [I-43, 2-(2-(dimethylamino)-5-ethyl-6-(4-(6-hydroxybenzo[d]oxazole-7-carbonyl)piperazin-1-yl)-7-oxo-[1,2,4]triazolo[1,5-a]pyrimidin-4(7H)-yl)-N-(3-isopropylbicyclo[1.1.1]pentan-1-yl)acetamide] | 500 to 2000 nM | 5 to 50 nM
CCc1c(N2CCN(C(=O)c3ncnc(C)c3O)[C@H]3CC[C@@H]32)c(=O)c2nc(N(C)C)cnc2n1CC(=O)NC1CC2(CCC2)C1 [I-229, 2-(2-(dimethylamino)-6-ethyl-7-((1S,6S)-5-(5-hydroxy-6-methylpyrimidine-4-carbonyl)-2,5-diazabicyclo[4.2.0]octan-2-yl)-8-oxopyrido[2,3-b]pyrazin-5(8H)-yl)-N-(spiro[3.3]heptan-2-yl)acetamide] | 2000 to 5000 nM | 5 to 50 nM
CCc1c(N2CCN(C(=O)c3ncnc(C)c3O)[C@H]3CC[C@@H]32)c(=O)c2nc(N(C)C)cnc2n1CC(=O)NC12CC(OC(F)(F)F)(C1)C2 [I-237, 2-(2-(dimethylamino)-6-ethyl-7-((1S,6S)-5-(5-hydroxy-6-methylpyrimidine-4-carbonyl)-2,5-diazabicyclo[4.2.0]octan-2-yl)-8-oxopyrido[2,3-b]pyrazin-5(8H)-yl)-N-(3-(trifluoromethoxy)bicyclo[1.1.1]pentan-1-yl)acetamide] | 2000 to 5000 nM | 5 to 50 nM
CCc1c(N2CCN(C(=O)CC3CCCC(=O)N3)[C@H]3CC[C@@H]32)c(=O)c2nn(C3=CCOCC3)nc2n1CC(=O)NC12CC(C(C)C)(C1)C2 (stereo partly drawn) [I-235, 2-(2-(3,6-dihydro-2H-pyran-4-yl)-5-ethyl-7-oxo-6-((1S,6S)-5-(2-(6-oxopiperidin-2-yl)acetyl)-2,5-diazabicyclo[4.2.0]octan-2-yl)-2,7-dihydro-4H-[1,2,3]triazolo[4,5-b]pyridin-4-yl)-N-(3-isopropylbicyclo[1.1.1]pentan-1-yl)acetamide] | > 5000 nM | 5 to 50 nM
CCc1c(N2CCN(C(=O)c3cccc(N4CCN(C)CC4)c3)[C@H]3CC[C@@H]32)c(=O)c2nn(C3=CCOCC3)nc2n1CC(=O)NC12CC(C(C)C)(C1)C2 [I-201, 2-(2-(3,6-dihydro-2H-pyran-4-yl)-5-ethyl-6-((1S,6S)-5-(3-(4-methylpiperazin-1-yl)benzoyl)-2,5-diazabicyclo[4.2.0]octan-2-yl)-7-oxo-2,7-dihydro-4H-[1,2,3]triazolo[4,5-b]pyridin-4-yl)-N-(3-isopropylbicyclo[1.1.1]pentan-1-yl)acetamide] | 500 to 2000 nM | ≤ 5 nM
CCc1c(N2CCN(C(=O)c3c(OC)ncc(C4CCOC4)c3O)CC2)c(=O)c2nn(-c3ccnc(OC)c3)nc2n1CC(=O)NC12CC(C(C)C)(C1)C2 (single isomer, unassigned) [I-64] | 500 to 2000 nM | 5 to 50 nM

Other lines, results leading:

EC50 [1] | IC50 [2] | Structure (SMILES)
> 5000 nM | > 500 nM | CCc1c(N2CCN(C(=O)c3ncnc(C)c3O)CC2)c(=O)n2nc(-c3ccnc(OC)c3)nc2n1CCC(=O)NC12CC(C(F)(F)F)(C1)C2 [I-13, 3-(5-ethyl-6-(4-(5-hydroxy-6-methylpyrimidine-4-carbonyl)piperazin-1-yl)-2-(2-methoxypyridin-4-yl)-7-oxo-[1,2,4]triazolo[1,5-a]pyrimidin-4(7H)-yl)-N-(3-(trifluoromethyl)bicyclo[1.1.1]pentan-1-yl)propanamide]
≤ 500 nM | 5 to 50 nM | CCc1c(N2CCN(C(=O)c3c(O)ccc4ncoc34)CC2)c(=O)n2nc(C3=CCOCC3)nc2n1CC(=O)NC12CC(C(C)C)(C1)C2 [I-42, 2-(2-(3,6-dihydro-2H-pyran-4-yl)-5-ethyl-6-(4-(6-hydroxybenzo[d]oxazole-7-carbonyl)piperazin-1-yl)-7-oxo-[1,2,4]triazolo[1,5-a]pyrimidin-4(7H)-yl)-N-(3-isopropylbicyclo[1.1.1]pentan-1-yl)acetamide]
≤ 500 nM | 5 to 50 nM | CCc1c(N2CCN(C(=O)c3c(OC)ncc(C)c3O)CC2)c(=O)n2nc(-c3ccnc(OC)c3)nc2n1CC(=O)NC12CC(C3CC3)(C1)C2 [I-39, N-(3-cyclopropylbicyclo[1.1.1]pentan-1-yl)-2-(5-ethyl-6-(4-(4-hydroxy-2-methoxy-5-methylnicotinoyl)piperazin-1-yl)-2-(2-methoxypyridin-4-yl)-7-oxo-[1,2,4]triazolo[1,5-a]pyrimidin-4(7H)-yl)acetamide]
> 5000 nM | 100 to 500 nM | CCc1c(N2CCN(C(=O)c3c(O)ccc4ncoc34)CC2)c(=O)n2nc(-c3ccnc(OC)c3)nc2n1CC(=O)NC12CC(OC)(C1)C2 [I-241, 2-(5-ethyl-6-(4-(6-hydroxybenzo[d]oxazole-7-carbonyl)piperazin-1-yl)-2-(2-methoxypyridin-4-yl)-7-oxo-[1,2,4]triazolo[1,5-a]pyrimidin-4(7H)-yl)-N-(3-methoxybicyclo[1.1.1]pentan-1-yl)acetamide]
2000 to 5000 nM | 5 to 50 nM | CCc1c(N2CCN(C(=O)c3c(O)ccc4ncoc34)CC2)c(=O)n2nc(N(C)C)nc2n1CC(=O)NC12CC(C(F)(F)F)(C1)C2 [I-22, 2-(2-(dimethylamino)-5-ethyl-6-(4-(6-hydroxybenzo[d]oxazole-7-carbonyl)piperazin-1-yl)-7-oxo-[1,2,4]triazolo[1,5-a]pyrimidin-4(7H)-yl)-N-(3-(trifluoromethyl)bicyclo[1.1.1]pentan-1-yl)acetamide]
> 5000 nM | > 500 nM | CCc1c(N2CCN(C(=O)c3c(O)ccc4ncoc34)CC2)c(=O)n2nc(-c3ccnc(OC)c3)nc2n1CCNC(=O)C12CC(C(F)(F)F)(C1)C2 [I-34, N-(2-(5-ethyl-6-(4-(6-hydroxybenzo[d]oxazole-7-carbonyl)piperazin-1-yl)-2-(2-methoxypyridin-4-yl)-7-oxo-[1,2,4]triazolo[1,5-a]pyrimidin-4(7H)-yl)ethyl)-3-(trifluoromethyl)bicyclo[1.1.1]pentyl-1-carboxamide]
500 to 2000 nM | 5 to 50 nM | CCc1c(N2CCN(C(=O)c3c(O)ccc4ncoc34)CC2)c(=O)n2nc(-c3ccnc(OC)c3)nc2n1CC(=O)NC12C3C4C1C1C2C3C41C(F)(F)F (stereo not drawn) [I-220, 2-(5-ethyl-6-(4-(6-hydroxybenzo[d]oxazole-7-carbonyl)piperazin-1-yl)-2-(2-methoxypyridin-4-yl)-7-oxo-[1,2,4]triazolo[1,5-a]pyrimidin-4(7H)-yl)-N-(4-(trifluoromethyl)cuban-1-yl)acetamide]
500 to 2000 nM | 5 to 50 nM | CCc1c(N2CCN(C(=O)c3c(O)ccc4ncoc34)CC2)c(=O)n2nc(-c3ccnc(OC)c3)nc2n1CC(=O)NC12CC(CCF)(C1)C2 [I-31, 2-(5-ethyl-6-(4-(6-hydroxybenzo[d]oxazole-7-carbonyl)piperazin-1-yl)-2-(2-methoxypyridin-4-yl)-7-oxo-[1,2,4]triazolo[1,5-a]pyrimidin-4(7H)-yl)-N-(3-(2-fluoroethyl)bicyclo[1.1.1]pentan-1-yl)acetamide]
